From US9340559B2, “Proteasome inhibitor delanzomib for use in the treatment of lupus” (Cephalon, Inc., priority 2011, dated 2016)

How the values were obtained:
NZM mice = assay: Survival, NZM mice, sc/ip dosing (Example 3); format: in vivo, mouse; conditions: Groups 1, 2, and 4
Method: FIG. 44 depicts survival of NZM mice across treatment groups for the study duration. NZM mice were treated as outlined in the legend. […] The overall percentage of surviving mice at the 91 day endpoint is listed in parentheses within the legend. * indicates p≦0.05.

[1] = in vivo; cited from earlier work
MRL/lpr mice = conditions: 6 control animals, 5 on drug, p=0.03; cited from earlier work
NZB/W F1 mice = conditions: lupus prone NZB/W F1 mice; cited from earlier work

## CC(C)C[C@H](NC(=O)[C@@H](NC(=O)c1cccc(-c2ccccc2)n1)[C@@H](C)O)B(O)O [COMPOUND A, [(1R)-1-[[(2S,3R)-3-hydroxy-2-[6-phenyl-pyridine-2-carbonyl)amino]-1-oxobutyl]amino]-3-methylbutylboronic acid]
NZM mice
  survival relative to vehicle: significantly increased survival

## CC(C)C[C@H](NC(=O)[C@H](Cc1ccccc1)NC(=O)c1cnccn1)B(O)O [bortezomib, reference compound]
[1]
  serious side effects: polyneuropathy, thrombocytopenia and gastrointestinal complications
MRL/lpr mice
  survival: significantly improved survival
NZB/W F1 mice
  proteinuria: significantly reduced proteinuria
  renal pathology: improved renal pathology
  survival compared to vehicle: markedly prolonged survival
